In US20230029496A1, “AMINO ACID ALTERNATIVE CURING SYSTEM” (THE TEXAS A&M UNIVERSITY SYSTEM, priority 2019, published 2023):
Several values for one entry are separate records, joined by “and”; a condition that tells them apart may be missing. Equal values may be shown once. Entries after “also recorded” stand apart in the source; their conditions may differ. Marks after values point to notes of the source that are not given here.

How the values were obtained:
[1] = system: Nitric Oxide Synthase (NOS) system; assay: Cure efficiency (NO-heme, total heme, nitrosylation) of cooked pre- and post-rigor pork semimembranosus muscle (Example 13); assay type: biochemical
Method: Cooked meat samples were analyzed for the degree of nitrosylation through residual nitrite from the Pearson and Tauber method from the modified Hornsey's procedure for analyzing small samples [103] from the supernatant and pellet. 2 mL or 2 g of the samples were treated with acetone to measure NO-heme concentration and for total heme concentration, 2 mL or 2 g of the samples were treated with acetone and hydrochloric acid. Both samples were measured using a spectrophotometer (2100 Series Spectrophotometer, Unico, Dayton, N.J.) and a 1 cm quartz cuvette. NO-heme concentration (ppm acid hematin) was read at 540 nm, and total heme concentration (ppm acid hematin) was determined at 640 nm to determine nitrosylation as the indication of the effectiveness of L-arginine in curing the samples. This procedure measured the conversion levels of myoglobin to nitrosohemochromagen, the cured meat color, and the amount of conversion as compared to the total pigmentation within the sample.
Curing efficiency or nitrosylation is calculated as the percentage conversion of NO-heme to total heme. Cure efficiency is the percentage of total pigment converted to nitroso pigment and indicates the degree of cured color fading. Cured meat pigment is extracted in a solution of 80% acetone and 20% water that extracts cured pigment heme. Total heme pigments are extracted using an acidified acetone solution that extracts heme from all heme proteins as first used by Hornsey. NO-heme concentration (as ppm acid hematin)=sample A540×290 determines the specific cure color pink from the rest of the heme pigmentation of the sample. Total heme concentration (ppm acid hematin)=sample A640×680 determines the total heme pigmentation of the sample. Cure efficiency (%)=(ppm of nitrosoheme […]ppm of total pigment)×100 and indicates how much of the product is cured and holds the cured pink stability once cooked.

[2] = system: nitric oxide synthase system; assay: Residual nitrite equivalency scale, key findings across all species (Example 26)
NOS system = assay: NO-heme, total heme, nitrosylation and cured color in test tube pork loin sausages (Example 11)
[3] = 2 mM L-arginine, cooked post rigor pellet
[4] = 2 mM L-arginine, cooked post rigor supernatant
[5] = 2 mM L-arginine, cooked pre-rigor pellet
[6] = 2 mM L-arginine, cooked pre-rigor supernatant
[7] = 4 mM L-arginine, cooked post rigor pellet
[8] = 4 mM L-arginine, cooked post rigor supernatant
[9] = 4 mM L-arginine, cooked pre-rigor pellet
[10] = 4 mM L-arginine, cooked pre-rigor supernatant
[11] = 8 mM L-arginine, cooked post rigor pellet
[12] = 8 mM L-arginine, cooked post rigor supernatant
[13] = 8 mM L-arginine, cooked pre-rigor pellet
[14] = 8 mM L-arginine, cooked pre-rigor supernatant
[15] = 16 mM L-arginine, cooked post rigor pellet
[16] = 16 mM L-arginine, cooked post rigor supernatant
[17] = 16 mM L-arginine, cooked pre-rigor pellet
[18] = 16 mM L-arginine, cooked pre-rigor supernatant
[19] = 32 mM L-arginine, cooked post rigor pellet
[20] = 32 mM L-arginine, cooked post rigor supernatant
[21] = 32 mM L-arginine, cooked pre-rigor pellet
[22] = 32 mM L-arginine, cooked pre-rigor supernatant
[23] = High (5000 ppm) L-arginine, 8 days post thermal processing
[24] = High (5000 ppm) L-arginine, one day after thermal processing

N=C(N)NCCC[C@H](N)C(=O)O [L-arginine]
NO-Heme [1, 3]: 16.10^b ppm | Nitrosylation [1, 3]: 31.22^a % | Total Heme [1, 3]: 62.56^a ppm | NO-Heme [1, 4]: 23.76^a ppm | Nitrosylation [1, 4]: 61.38^a % | Total Heme [1, 4]: 64.43^a ppm | NO-Heme [1, 5]: 19.02^a ppm | Nitrosylation [1, 5]: 52.09^a % | Total Heme [1, 5]: 61.48 ppm and 61.48^ab ppm | NO-Heme [1, 6]: 26.02 ppm and 26.02^ab ppm | Nitrosylation [1, 6]: 60.23^a % | Total Heme [1, 6]: 50.43^a ppm | NO-Heme [1, 7]: 19.72 ppm and 19.72^ab ppm | Nitrosylation [1, 7]: 35.19^a % | Total Heme [1, 7]: 67.72^a ppm | NO-Heme [1, 8]: 22.81^a ppm | Nitrosylation [1, 8]: 55.90^a % | Total Heme [1, 8]: 73.33^a ppm | NO-Heme [1, 9]: 18.82^a ppm | Nitrosylation [1, 9]: 49.31^a % | Total Heme [1, 9]: 52.07 ppm and 52.07^ab ppm | NO-Heme [1, 10]: 28.17 ppm and 28.17^ab ppm | Nitrosylation [1, 10]: 70.03^a % | Total Heme [1, 10]: 40.86^a ppm | NO-Heme [1, 11]: 18.34 ppm and 18.34^ab ppm | Nitrosylation [1, 11]: 35.53^a % | Total Heme [1, 11]: 63.58^a ppm | NO-Heme [1, 12]: 25.98^a ppm | Nitrosylation [1, 12]: 79.27^a % | Total Heme [1, 12]: 62.90^a ppm | NO-Heme [1, 13]: 16.38^a ppm | Nitrosylation [1, 13]: 31.43^a % | Total Heme [1, 13]: 80.07 ppm and 80.07^ab ppm | NO-Heme [1, 14]: 32.98^a ppm | Nitrosylation [1, 14]: 75.71^a % | Total Heme [1, 14]: 45.11^a ppm | NO-Heme [1, 15]: 18.42 ppm and 18.42^ab ppm | Nitrosylation [1, 15]: 62.80^a % | Total Heme [1, 15]: 51.68^a ppm | NO-Heme [1, 16]: 20.54^a ppm | Nitrosylation [1, 16]: 52.33^a % | Total Heme [1, 16]: 54.46^a ppm | NO-Heme [1, 17]: 26.56^a ppm | Nitrosylation [1, 17]: 55.29^a % | Total Heme [1, 17]: 123.31 ppm and 123.31^a ppm | NO-Heme [1, 18]: 22.45 ppm and 22.45^ab ppm | Nitrosylation [1, 18]: 55.02^a % | Total Heme [1, 18]: 42.05^a ppm | NO-Heme [1, 19]: 27.33 ppm and 27.33^a ppm | Nitrosylation [1, 19]: 34.51^a % | Total Heme [1, 19]: 85.11^a ppm | NO-Heme [1, 20]: 25.50^a ppm | Nitrosylation [1, 20]: 104.27^a % | Total Heme [1, 20]: 59.73^a ppm | NO-Heme [1, 21]: 33.37^a ppm | Nitrosylation [1, 21]: 86.11^a % | Total Heme [1, 21]: 53.72 ppm and 53.72^ab ppm | NO-Heme [1, 22]: 27.67^ab ppm | Nitrosylation [1, 22]: 66.20^a % | Total Heme [1, 22]: 44.94^a ppm | residual nitrite values compared to sodium nitrite concentrations of 120, 156 and 200 ppm ([2]; L-arginine 1000, 2000 and 3000 ppm, with sodium erythorbate, except poultry at 200 ppm sodium nitrite): comparable | residual nitrite values compared to lower L-arginine concentrations ([2]; L-arginine 4000 and 5000 ppm, with sodium erythorbate): lower residual nitrite values | residual nitrite values compared to sodium nitrite treated samples ([2]; no cure accelerator (sodium erythorbate) included): consistently lower; also recorded: lower residual nitrite values | NO-Heme (NOS system; [23]): 14.59^a ppm | Nitrosylation (NOS system; [23]): 38.65^a % | Total Heme (NOS system; [23]): 37.4^a ppm | NO-Heme (NOS system; [24]): 13.43^b ppm | Nitrosylation (NOS system; [24]): 60.58^b % | Total Heme (NOS system; Low (1000 ppm) L-arginine, 8 days post thermal processing): 28.56^b ppm | Nitrosylation (NOS system; Low (1000 ppm) L-arginine, one day after thermal processing): 37.05^a % | decrease in nitrosylation (NOS system; during 8 days of refrigerated vacuum packaged storage): 38-45%
